Measurements from patent publication US20140179607A9 (IRONWOOD PHARMACEUTICALS, INC, priority 2009, published 2014).
Positions of bridges follow the written chain, without caps; N, C: chain ends. Non-standard residues stand in square brackets, D forms with d. Residues, ends and D or L forms follow the SMILES beside them. pS = N[C@@H](COP(=O)(O)O)C(=O)O

How the values were obtained:
[1] = In vitro metabolism in mouse jejunum loop fluid; type: in vitro ADME; conditions: for metabolism in mouse jejunum fluid (words) / remaining at 2 h, 100 μg/mL: 37° C.; for metabolism in mouse jejunum fluid (words): up to 120 minutes; for remaining at 2 h, 100 μg/mL: mouse jejunum loop fluid, pH 8, mouse jejunal loop fluid, after 120 minutes, read-out: percent remaining
Description: The purpose of this study was to determine the stability of phosphorylated peptides in mouse jejunal loop fluid. […] The isotopically labeled peptide 2 was synthesized with ^13C, ^15N-labeled alanine and leucine (i.e., with a sequence CCpS[^13C6, ^15N]LCCNP[^13C6, ^15N]ACTGC).
Each peptide was synthesized by American Peptide Company, Inc., and was stored desiccated at −20° C. A 1 mg/mL solution for each of the non-labeled peptides was prepared in 1 M tris (hydroxymethyl) aminomethane hydrochloride (Tris-HCl), pH 8 just prior to conducting the mouse intestinal loop fluid assay. A 500 ng/mL solution of ^13C, ^15N-labeled peptide 2 was prepared in 0.1% formic acid in water and was utilized to dilute the jejunum samples for post-assay LC-MS/MS analysis.
To collect the fluid, mice were fasted overnight with full access to water. They were then anesthetized with isofluorane for surgery and subjected to laparotomy in which the small intestine was exteriorized. Jejunum loops of 3 to 4 cm in length were made with sutures starting at 7 cm from the pyloric sphincter of the stomach. Once the loops were formed, they were injected with 200 μL of phosphate buffered saline (PBS) buffer (10 mM, pH 7.4). The abdominal wall and skin of the animals were then sutured, and the animals were allowed to recover for 30 minutes. Following recovery, the animals were sacrificed, the loops were then excised and the fluid inside was recovered and stored at −80° C. until use.
For each peptide, 25 μL of the 1 mg/mL peptide stock solution was added to 25 μL of 1 M Tris-HCl and 25 μL of 10× calf intestinal phosphatase (CIP) buffer containing 500 mM Tris-HCl, 1 M sodium chloride (NaCl), 0.1 mM magnesium chloride (MgCl2), pH 8. The reactions were initiated by adding 175 μL of the mouse jejunum loop fluid or 175 μL of the 1 M Tris-HCl pH8 buffer for the control reactions. The final concentration of each peptide was 100 μg/mL. The reactions were continuously mixed and maintained at 37° C. on a plate shaker. At 0, 2, 5, 10, 20, 30, 60, 90 and 120 minutes after adding the mouse intestinal loop fluid, a 25 μL aliquot was taken and added to 25 μL of 4° C. 12% trichloroacetic acid to stop the reaction. An additional 200 μL of 0.1% formic acid in water was added to these reactions for dilution purposes. These samples were then further diluted by taking 20 μL of each sample and adding it to 480 μL of 0.1% formic acid in water containing 500 ng/mL of the internal standard 13C, 15N -labeled peptide 2.
All samples were analyzed using an Applied Biosystems/MDS SCIEX API 4000 triple quadrupole mass spectrometer equipped with a high-performance liquid chromatography (HPLC) system. The mass spectrometer was operated in multiple reaction monitoring (MRM) mode, with resolution set to 1.2 Da.
The LC-MS/MS data were processed using Analyst version 1.4.2 software (Applied Biosystems/MDS SCIEX). The peak area ratio (ratio of analyte peak area to internal standard peak area) was used to calculate the percent remaining of each peptide.

[2] = molecular target: T1, human prostate acid phosphatase (HuPrAP) (Homo sapiens, UniProt P15309); assay: Acid phosphatase reaction, human prostate acid phosphatase; type: in vitro ADME; conditions: Human prostatic acid phosphatase pH 5, 90 minutes at 37° C.
T1 construct: purchased MP Biochemicals, Solon, Ohio 153872
T1 sequence (P15309 33-386): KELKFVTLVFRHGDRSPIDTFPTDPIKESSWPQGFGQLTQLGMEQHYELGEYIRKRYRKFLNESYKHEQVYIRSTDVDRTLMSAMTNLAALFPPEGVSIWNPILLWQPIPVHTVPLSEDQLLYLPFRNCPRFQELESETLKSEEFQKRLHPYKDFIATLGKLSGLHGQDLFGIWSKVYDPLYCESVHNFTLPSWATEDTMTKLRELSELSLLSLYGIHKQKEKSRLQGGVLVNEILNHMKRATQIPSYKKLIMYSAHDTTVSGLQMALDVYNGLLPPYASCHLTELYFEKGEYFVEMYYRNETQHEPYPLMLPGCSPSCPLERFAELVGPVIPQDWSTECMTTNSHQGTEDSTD
Description: (§1) For the alkaline phosphatase reactions, peptide stocks were prepared at 1 mg/mL in 0.1 M Tris-HCl pH 8, which were stored at −20° C. until assays were conducted. For the acid phosphatase reactions, peptide stocks were prepared at 1 mg/mL in 50 mM sodium phosphate pH 6, which was stored at −20° C. until assays were conducted.
(§2) Potato acid phosphatase (PoAP) was obtained from Sigma, St. Louis, Miss. Cat #P1146 and human prostate acid phosphatase (HuPrAP) was obtained from MP Biochemicals, Solon, Ohio. Cat # 153872. The acid phosphatases were dissolved to provide a solution containing 0.5 units AP/μL using 50 mM sodium acetate pH 5, 0.2 mM MgCl2. The acid phosphatase reactions were assembled in 20 μL quantities containing: • 2 μL 10× acid phosphatase buffer (500 mM sodium acetate pH 5, 2 mM MgCl2) • 2 μL peptide stock (1 mg/mL) • 12 μL H2O • 4 μL acid phosphatase (0.5 or 2 units)
(§3) The reaction solutions were mixed gently and incubated for 90 minutes at 37° C. The reaction solutions were stored at −20° C. for later analysis. For analysis, 7.5 μL acid phosphatase reactions were diluted to 50 μL with 0.1% formic acid in water to a final concentration of 10 μM. The control reactions for enzyme activity were assembled and diluted to 10 mM p-nitrophenylphosphate in place of peptide. After incubation, the reactions were diluted with 0.1 mL of 100 mM borate buffer pH 9 and read at the absorbance of 405 nm to monitor p-nitrophenol appearance.

[3] = molecular target: T2, Calf intestinal alkaline phosphatase (CIP) (Bos taurus, UniProt P19111); assay: Alkaline phosphatase reaction (dephosphorylation of peptide substrates, LCMS); type: in vitro ADME
T2 construct: purchased New England BioLabs, Ipswich, Mass; M0290S
Description: as §1
Calf intestinal alkaline phosphatase (CIP) was obtained from New England BioLabs, Ipswich, Mass. Cat # M0290S. The CIP reaction solution was prepared by dilution with buffer (50 mM KCl, 10 mM Tris-HCl pH 8, 1 mM MgCl2, 50% glycerol) to 0.5 units/μL. The alkaline phosphatase reaction solutions were assembled in 20 μL quantities containing: • 2 μL 10× CIP buffer (1M NaCl, 500 mM Tris-HCl pH 8, 100 mM MgCl2) • 2 μL peptide stock (1 mg/mL) • 12 μL H2O • 4 μL alkaline phosphatase (0, 0.5 or 2 units)
The reaction solutions were mixed gently and incubated for 90 minutes at 37° C. These reaction solutions were stored at −20° C. until analysis. For analysis, the reaction solutions were diluted from 7.5 μL of CIP treated peptide to 50 μL with 0.1% formic acid in water to a final concentration of 10 μM.
Control reactions were assembled for enzyme activity containing 10 mM p-nitrophenylphosphate in place of peptide. After incubation, the reactions were diluted with 0.1 mL of 100 mM borate buffer pH 9 and read at the absorbance of 405 nm to monitor p-nitrophenol appearance.

[4] = oral administration at therapeutic dose levels; cited from earlier work
[5] = tested on: Potato acid phosphatase (PoAP); assay: Acid phosphatase reaction, potato acid phosphatase; type: in vitro ADME; conditions: Potato acid phosphatase pH 5, 90 minutes at 37° C.
Description: as §1, §2, §3

[6] = tested on: Calf intestinal alkaline phosphatase (CIP); assay: Calf intestinal alkaline phosphatase (CIP) in CIP buffer (NaCl, Tris-HCl pH 8, MgCl2); conditions: 37° C., up to 90 minutes
[7] = tested on: human prostate acid phosphatase (HuPrAP); assay: human prostate acid phosphatase (HuPrAP) in sodium acetate pH 5, MgCl2; conditions: 37° C., up to 90 minutes
[8] = mouse jejunum loop fluid (loops injected with 200 μL PBS, fluid recovered after 30 minutes); conditions: 37° C., up to 120 minutes
[9] = tested on: Potato acid phosphatase (PoAP); assay: Potato acid phosphatase (PoAP) in sodium acetate pH 5, MgCl2; conditions: 37° C., up to 90 minutes
[10] = Alkaline phosphatase pH 8, 90 minutes at 37° C.

T2 sequence (P19111 20-506): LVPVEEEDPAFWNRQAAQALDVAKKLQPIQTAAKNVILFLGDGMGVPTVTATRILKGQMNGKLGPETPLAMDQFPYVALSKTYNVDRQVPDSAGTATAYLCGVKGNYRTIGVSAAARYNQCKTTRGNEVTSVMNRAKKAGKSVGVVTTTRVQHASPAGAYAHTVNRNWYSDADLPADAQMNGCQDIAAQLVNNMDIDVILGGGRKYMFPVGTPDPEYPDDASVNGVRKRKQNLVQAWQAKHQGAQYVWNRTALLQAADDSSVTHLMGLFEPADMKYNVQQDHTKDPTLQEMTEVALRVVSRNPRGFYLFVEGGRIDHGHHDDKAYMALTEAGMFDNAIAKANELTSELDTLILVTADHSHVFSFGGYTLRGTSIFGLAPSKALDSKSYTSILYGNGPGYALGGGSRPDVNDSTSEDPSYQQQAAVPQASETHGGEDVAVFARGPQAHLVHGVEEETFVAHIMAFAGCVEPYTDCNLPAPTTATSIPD

Molecule: CC(C)C[C@@H]1NC(=O)[C@H](CO)NC(=O)[C@@H]2CSSC[C@@H]3NC(=O)[C@H](C)NC(=O)[C@@H]4CCCN4C(=O)[C@H](CC(N)=O)NC(=O)[C@H](CSSC[C@H](N)C(=O)N2)NC(=O)[C@H](CSSC[C@@H](C(=O)O)NC(=O)CNC(=O)[C@H]([C@@H](C)O)NC3=O)NC1=O [Dephospho-Peptide 2, CCSLCCNPACTGC] (H-CCSLCCNPACTGC-OH; disulfide 1-6, 2-10, 5-13 (inferred); N-terminus and C-terminus assumed)
- metabolism in mouse jejunum fluid (words) [1]: degraded faster in mouse intestinal fluid than peptide 2
- remaining at 2 h, 100 μg/mL [1]: 5.6%

Molecule: CC(C)C[C@@H]1NC(=O)[C@H](COP(=O)(O)O)NC(=O)[C@@H]2CSSC[C@@H]3NC(=O)[C@H](C)NC(=O)[C@@H]4CCCN4C(=O)[C@H](CC(N)=O)NC(=O)[C@H](CSSC[C@H](N)C(=O)N2)NC(=O)[C@H](CSSC[C@@H](C(=O)O)NC(=O)CNC(=O)[C@H]([C@@H](C)O)NC3=O)NC1=O [Peptide 2, CCpSLCCNPACTGC] (H-CC[pS]LCCNPACTGC-OH; disulfide 1-6, 2-10, 5-13 (inferred); N-terminus and C-terminus assumed)
- Dephospho (%) [2]: 4.1%
- remaining at 1.5 h, 0.1 mg/mL ([2]; human prostate acid phosphatase (HuPrAP)): 95.9%
- Dephospho (%) [3, 10]: 100%
- remaining at 1.5 h, 0.1 mg/mL ([3]; calf, calf intestinal alkaline phosphatase (CIP), Alkaline phosphatase pH 8, 90 minutes at 37° C.): 0%
- formation of metabolite dephospho-peptide 2 ([1]; mouse jejunum loop fluid at 37° C.): Formation of dephospho-peptide 2 was observed
- remaining at 2 h, 100 μg/mL [1]: 5.3%

Molecule: CC(C)C[C@@H]1NC(=O)[C@H](CCC(=O)O)NC(=O)[C@@H]2CSSC[C@@H]3NC(=O)[C@H](C)NC(=O)[C@@H]4CCCN4C(=O)[C@H](CC(N)=O)NC(=O)[C@H](CSSC[C@H](N)C(=O)N2)NC(=O)[C@H](CSSC[C@@H](C(=O)N[C@@H](Cc2ccc(O)cc2)C(=O)O)NC(=O)CNC(=O)[C@H]([C@@H](C)O)NC3=O)NC1=O [Peptide 3, CCELCCNPACTGCY] (H-CCELCCNPACTGCY-OH; disulfide 1-6, 2-10, 5-13 (inferred); N-terminus and C-terminus assumed)
- Effect of CIP treatment on peptide (LC-MS) ([3]; with and without calf intestinal alkaline phosphatase, data not shown): not affected by CIP treatment
- metabolism in mouse jejunum fluid (words) [1]: not detected after 90 minutes
- metabolism in mouse jejunum fluid (words) ([1]; listed as peptide 3): degraded faster in mouse intestinal fluid than peptide 2

Molecule: C[C@@H]1NC(=O)[C@@H]2CCCN2C(=O)[C@H](CC(N)=O)NC(=O)[C@@H]2CSSC[C@H](N)C(=O)N[C@H]3CSSC[C@H](NC1=O)C(=O)N[C@@H]([C@@H](C)O)C(=O)NCC(=O)N[C@H](C(=O)N[C@@H](Cc1ccc(O)cc1)C(=O)O)CSSC[C@H](NC(=O)[C@H](Cc1ccc(O)cc1)NC(=O)[C@H](CCC(=O)O)NC3=O)C(=O)N2 [linaclotide] (H-CCEYCCNPACTGCY-OH; disulfide 1-6, 2-10, 5-13)
- levels seen systemically after oral administration [4]: no detectable levels

Molecule: O=[N+]([O-])c1ccc(OP(=O)(O)O)cc1 [p-nitrophenylphosphate, reference compound]
- Dephospho (%) [2]: 100%
- Remaining (%) [2]: 0%
- Dephospho (%) [5]: 100%
- Remaining (%) [5]: 0%
- Dephospho (%) [3, 10]: 100%
- Remaining (%) [3, 10]: 0%

Molecule: CCELCCNPACTGCY
- not cleaved [6]: not affected by CIP treatment

Molecule: CCpSLCCNPACTGC
- fragment found [6]: Dephospho-Peptide 2
- fragment found [7]: Dephospho-Peptide 2
- fragment found [8]: dephospho-peptide 2

Molecule: CCpSLCCNPACTGCY
- fragment found [6]: Dephospho-Peptide 1
- fragment found [7]: Dephospho-Peptide 1
- fragment found [9]: Dephospho-Peptide 1
